Test results: patent US8716493B2, “Multicyclic compounds and the use thereof” (Cephalon, Inc., priority 2000, dated 2014)
Structures can show the parent of a compound that is named as a salt. Where two headings read alike, the source gives them in different places.

Target: recombinant human PARP (Homo sapiens, UniProt P09874)
Test: Measurement of PARP enzymatic activity (transfer of radiolabeled ADP-ribose from NAD+ to protein acceptor)
Format: biochemical
Method: PARP activity was monitored by transfer of radiolabeled ADP-ribose units from [^32]NAD^+ to a protein acceptor such as histone or PARP itself. […] The reactions were initiated by the addition of 100 μM NAD^+ supplemented with 2 uCi [^32]NAD^+/mL and maintained at room temperature for 12 minutes. […] The amount of acid-insoluble radioactivity, corresponding to polyADP-ribosylated protein, was quantitated in a Wallac MicroBeta scintillation counter.
Single-point inhibition data were calculated by comparing PARP, VEGFR2, or MLK3 activity in the presence of inhibitor to activity in the presence of DMSO only. Inhibition curves for compounds were generated by plotting percent inhibition versus log10 of the concentration of compound. IC50 values were calculated by nonlinear regression using the sigmoidal dose-response (variable slope) equation in GraphPad Prism as follows: y=bottom+(top−bottom)/(1+10^(log IC50^−x)*Hillslope) where y is the % activity at a given concentration of compound, x is the logarithm of the concentration of compound, bottom is the % inhibition at the lowest compound concentration tested, and top is the % inhibition at the highest compound concentration examined. The values for bottom and top were fixed at 0 and 100, respectively. IC50 values were reported as the average of at least three separate determinations.
For some compounds, inhibiting data is presented as percent inhibition at a specified concentration. Compounds are tabulated together with compound number, substituents, and enzyme inhibition data.

Chain of recombinant human PARP (P09874 whole entry): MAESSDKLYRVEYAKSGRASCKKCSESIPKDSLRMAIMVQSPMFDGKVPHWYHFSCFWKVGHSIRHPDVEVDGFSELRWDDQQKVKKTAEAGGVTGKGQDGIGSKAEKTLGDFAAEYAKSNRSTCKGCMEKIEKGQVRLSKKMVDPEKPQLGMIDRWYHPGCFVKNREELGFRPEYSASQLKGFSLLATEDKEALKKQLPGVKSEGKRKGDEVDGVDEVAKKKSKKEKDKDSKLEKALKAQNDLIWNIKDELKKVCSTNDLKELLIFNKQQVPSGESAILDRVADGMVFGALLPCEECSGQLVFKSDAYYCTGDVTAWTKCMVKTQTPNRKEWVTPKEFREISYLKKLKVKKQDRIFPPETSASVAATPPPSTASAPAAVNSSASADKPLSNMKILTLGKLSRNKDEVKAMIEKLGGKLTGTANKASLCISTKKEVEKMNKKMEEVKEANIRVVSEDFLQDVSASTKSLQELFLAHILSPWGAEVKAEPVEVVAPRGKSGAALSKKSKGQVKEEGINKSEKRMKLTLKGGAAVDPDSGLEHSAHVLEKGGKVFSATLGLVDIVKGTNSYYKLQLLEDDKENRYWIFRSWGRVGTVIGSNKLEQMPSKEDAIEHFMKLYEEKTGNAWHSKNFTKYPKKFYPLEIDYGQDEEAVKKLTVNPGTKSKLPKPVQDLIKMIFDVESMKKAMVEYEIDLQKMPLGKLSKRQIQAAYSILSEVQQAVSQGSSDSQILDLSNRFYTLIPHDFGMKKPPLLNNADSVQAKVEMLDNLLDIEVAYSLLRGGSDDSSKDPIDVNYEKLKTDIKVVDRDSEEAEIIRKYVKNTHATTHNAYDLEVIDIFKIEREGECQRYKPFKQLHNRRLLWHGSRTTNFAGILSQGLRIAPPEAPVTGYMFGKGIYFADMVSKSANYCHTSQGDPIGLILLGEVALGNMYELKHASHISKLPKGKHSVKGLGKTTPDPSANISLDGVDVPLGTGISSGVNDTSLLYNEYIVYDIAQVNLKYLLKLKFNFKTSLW

IC50 (Table 2, read-out: PARP IC50) [nM]	Structure (SMILES)	also measured
31	CN(C)CCNC(=O)c1ccc2[nH]c3c4c(c5c(c3c2c1)C(=O)NC5=O)CCC4 [Compound 2cg]	–
–	O=C(NN1CCOCC1)Oc1ccc2[nH]c3c4c(c5c(c3c2c1)C(=O)NC5=O)CCC4 [Compound 15k]	IC50 (PARP IC50 (nM), Table 8): 20 nM
20	O=C(CN1CCCCC1)c1ccc2[nH]c3c4c(c5c(c3c2c1)C(=O)NC5=O)CCC4 [Compound 2i]	–
–	O=C1c2c3c(c4[nH]c5ccccc5c4c2C(=O)N1CCOCc1ccccc1)CCC3 [Compound 1n]	IC50 (Table 1, read-out: PARP IC50): 1600 nM
–	O=C1c2c3c(c4[nH]c5ccccc5c4c2C(=O)N1S(=O)(=O)c1ccccc1)CCC3 [Compound 1j]	IC50 (Table 1, read-out: PARP IC50): 250 nM
10	CN(Cc1ccncc1)C(=O)c1ccc2[nH]c3c4c(c5c(c3c2c1)C(=O)NC5=O)CCC4 [Compound 2cx]	–
–	O=C(NCCCN1CCCC1=O)Oc1ccc2[nH]c3c4c(c5c(c3c2c1)C(=O)NC5=O)CCC4 [Compound 15e]	IC50 (PARP IC50 (nM), Table 8): 28 nM
–	COc1cccc2[nH]c3c4c(c5c(c3c12)C(=O)N(CN1CCN(C)CC1)C5=O)CCC4 [Compound 16e]	IC50 (Table 18, read-out: PARP IC50): 14 nM
28	CCCCN(CCCC)Cc1ccc2[nH]c3c4c(c5c(c3c2c1)C(=O)NC5=O)CCC4 [Compound 2bn]	–
13	O=C(NCc1ccncc1)c1ccc2[nH]c3c4c(c5c(c3c2c1)C(=O)NC5=O)CCC4 [Compound 2ci]	–
–	O=C(NCc1nc(-c2ccc3[nH]c4c5c(c6c(c4c3c2)C(=O)NC6=O)CCC5)cs1)OCc1ccccc1 [Compound 3j]	IC50 (PARP IC50 (nM), Table 2): 20 nM
–	O=C1NC(=O)c2c1c1c(c3[nH]cc(Br)c23)CCC1 [Compound 8c, 3-Bromo-1,6,7,8-tetrahydrocyclopent[g]indole-4,5-dicarboxylate imide]	IC50 (Table 4, read-out: PARP IC50): 5 nM
7	CC(C)(C)OC(=O)[C@@H]1CCCN1C(=O)CCC(=O)c1ccc2[nH]c3c4c(c5c(c3c2c1)C(=O)NC5=O)CCC4 [Compound 4h]	–
54	NCCCC(=O)NCc1ccc2[nH]c3c4c(c5c(c3c2c1)C(=O)NC5=O)CCC4 [Compound 2y, 3-(N-(4-(Amino)butanoyl)aminomethyl)-5,7,8,9,10,11-hexahydrocyclopent[a]pyrrolo[3,4-c]carbazole-5(6H), 7-dione]	–
5	O=C(O)C(=O)c1ccc2[nH]c3c4c(c5c(c3c2c1)C(=O)NC5=O)CCC4 [Compound 2bb]	–
88	CCN(CC)CCOc1ccc2[nH]c3c4c(c5c(c3c2c1)C(=O)NC5=O)CCC4 [Compound 2ar]	–
37	O=C(NCc1ccc2[nH]c3c4c(c5c(c3c2c1)C(=O)NC5=O)CCC4)c1ccccc1 [Compound 2u, 3-(Benzoylaminomethyl)-5,7,8,9,10,11-hexahydrocyclopent[a]pyrrolo[3,4-c]carbazole-5(6H), 7-dione]	–
12	O=C1NC(=O)c2c1c1c(c3[nH]c4ccc(C(=O)N5CCOCC5)cc4c23)CCC1 [Compound 2cp]	–
27	COC(=O)c1ccc2[nH]c3c4c(c5c(c3c2c1)C(=O)NC5=O)CCC4 [Compound 2bi]	–
–	NCCCC[C@H](N)C(=O)N1C(=O)c2c3c(c4[nH]c5ccc(Cl)cc5c4c2C1=O)CCC3 [Compound 6f]	IC50 (Table 3, read-out: PARP IC50): 62 nM
–	O=C1NC(=O)c2c1c1c(c3[nH]c4nc(O)ccc4c23)CCC1 [Compound 8n]	IC50 (Table 18, read-out: PARP IC50): 6 nM
–	COCCOc1cccc2[nH]c3c4c(c5c(c3c12)C(=O)NC5=O)CCC4 [Compound 14f]	IC50 (Table 18, read-out: PARP IC50): 25 nM
–	O=C1NC(=O)c2c1c1c(c3[nH]c4cccc(OCCN5CCOCC5)c4c23)CCC1 [Compound 14d]	IC50 (Table 18, read-out: PARP IC50): 441 nM
32	CCNCc1ccc2[nH]c3c4c(c5c(c3c2c1)C(=O)NC5=O)CCC4 [Compound 2bk]	–
16	CN1CCN(CC(=O)c2ccc3[nH]c4c5c(c6c(c4c3c2)C(=O)NC6=O)CCC5)CC1 [Compound 2g]	–

IC50 (Table 2, read-out: PARP IC50) [nM]	Structure (SMILES)	also measured
–	O=C(NCCCn1ccnc1)Oc1ccc2[nH]c3c4c(c5c(c3c2c1)C(=O)NC5=O)CCC4 [Compound 15d]	IC50 (PARP IC50 (nM), Table 8): 32 nM
54	CNc1nc(-c2ccc3[nH]c4c5c(c6c(c4c3c2)C(=O)NC6=O)CCC5)cs1 [Compound 3h]	–
293	O=C1NC(=O)c2c1c1c(c3[nH]c4ccc(CN(Cc5ccccc5)Cc5ccccc5)cc4c23)CCC1 [Compound 2bo]	–
116	CCc1ccc2[nH]c3c4c(c5c(c3c2c1)C(=O)NC5=O)CCC4 [Compound 2az]	–
8	CN(CC(=O)O)CC(=O)c1ccc2[nH]c3c4c(c5c(c3c2c1)C(=O)NC5=O)CCC4 [Compound 2l]	–
–	COc1ccnc2[nH]c3c4c(c5c(c3c12)C(=O)NC5=O)CCC4 [Compound 8x]	IC50 (Table 18, read-out: PARP IC50): 4 nM
25	CCCCNCc1ccc2[nH]c3c4c(c5c(c3c2c1)C(=O)NC5=O)CCC4 [Compound 2bp]	–
29	CN(C)Cc1ccc2[nH]c3c4c(c5c(c3c2c1)C(=O)NC5=O)CCC4 [Compound 2bj]	–
27	O=C1NC(=O)c2c1c1c(c3[nH]c4ccc(O)cc4c23)CCC1 [Compound 2ao]	–
12	COC(=O)C(=O)c1ccc2[nH]c3c4c(c5c(c3c2c1)C(=O)NC5=O)CCC4 [Compound 2ba]	–
–	O=C(NCCn1cncn1)Oc1ccc2[nH]c3c4c(c5c(c3c2c1)C(=O)NC5=O)CCC4 [Compound 15n]	IC50 (PARP IC50, Table 18): 38 nM
–	O=C(CBr)c1ccc2[nH]c3c4c(c5c(c3c2c1)C(=O)NC5=O)CCC4 [Compound 2e]	IC50 (PARP IC50 (nM), Table 2): 13 nM
50	Cc1sc(N)nc1-c1ccc2[nH]c3c4c(c5c(c3c2c1)C(=O)NC5=O)CCC4 [Compound 3d]	–
44	CCCC(=O)NCc1ccc2[nH]c3c4c(c5c(c3c2c1)C(=O)NC5=O)CCC4 [Compound 2t, 3-(Butanoylaminomethyl)-5,7,8,9,10,11-hexahydrocyclopent[a]pyrrolo[3,4-c]carbazole-5(6H), 7-dione]	–
–	CN1CCN(C(=O)Oc2ccc3[nH]c4c5c(c6c(c4c3c2)C(=O)NC6=O)CCC5)CC1 [Compound 15b]	IC50 (PARP IC50 (nM), Table 8): 51 nM
–	NCCCCC(N)C(=O)n1c2ccc(Br)cc2c2c3c(c4c(c21)CCC4)C(=O)NC3 [Compound 6i, 3-Bromo-11-L-lysyl-5,7,8,9,10,11-hexahydrocyclopent[a]pyrrolo[3,4-c]carbazole-7(6H)-one dihydrochloride]	PARP percent inhibition @ 3 uM (3 uM, Table 3): [35% @
13	CC(=O)NCc1ccc2[nH]c3c4c(c5c(c3c2c1)C(=O)NC5=O)CCC4 [Compound 2r, 3-(Acetylaminomethyl)-5,7,8,9,10,11-hexahydrocyclopent[a]pyrrolo[3,4-c]carbazole-5(6H), 7-dione]	–
–	O=C1NC(=O)c2c1c1c(c3[nH]c4nc(O)c(Cl)cc4c23)CCC1 [Compound 8s]	IC50 (Table 18, read-out: PARP IC50): 14 nM
59	CCOCCOc1ccc2[nH]c3c4c(c5c(c3c2c1)C(=O)NC5=O)CCC4 [Compound 2aq]	–
14	O=C(NCC1CCCO1)c1ccc2[nH]c3c4c(c5c(c3c2c1)C(=O)NC5=O)CCC4 (stereo not shown) [Compound 2cr]	–
18	O=C1NC(=O)c2c1c1c(c3[nH]c4ccc(C(=O)N(CCO)CCO)cc4c23)CCC1 [Compound 2dc]	–
50	O=C(O)CCC(=O)NCc1ccc2[nH]c3c4c(c5c(c3c2c1)C(=O)NC5=O)CCC4 [Compound 2ab, 3-(N-(3-(Carboxy)propanoyl)aminomethyl)-5,7,8,9,10,11-hexahydrocyclopent[a]-pyrrolo[3,4-c]carbazole-5(6H), 7-dione]	–
36	NCCc1ccc2[nH]c3c4c(c5c(c3c2c1)C(=O)NC5=O)CCC4 [Compound 2be]	–
56	CC(C)CC(=O)NCc1nc(-c2ccc3[nH]c4c5c(c6c(c4c3c2)C(=O)NC6=O)CCC5)cs1 [Compound 3r]	–
